From patent US6177438A, “Morphinan derivatives and pharmaceutical use thereof” (priority 1993, dated 2001)
Where a name gives a salt, the structure may show the parent alone. Read-outs that look alike come from different tables or passages of the source.

Tests used:
[1] = system: extracted mouse vas deferens preparation; assay: Opioid activity test using an extracted mouse vas deferens preparation (suppression of electrically induced contractions); parameters: species or system male ddy mouse; details: electrical stimulus 0.1 Hz, 37° C.
Method: (§1) A male ddy mouse was used in this test. The vas deferens extracted from the animal was suspended in a Magnus tube filled with Krebes-Henseleit solution (NaCl 118 mM; KCl 4.7 mM; CaCl2 2.5 mM; KH2 PO4 1.1 mM; NaHCO3 25 mM; Glucose 11 mM) warmed to 37° C. and ventilated with 5% carbon dioxide and 95% oxygen. Electrical stimulus was performed at 0.1 Hz for 5.0 ms by means of ring-shaped platinum electrodes located above and below. Tissue contractions were recorded on a polygraph using an isometric transducer.
(§2) After adequately washing with nutrient solution and the contraction reaction stabilized, the μ agonist, naloxone, the δ agonist, NTI, or the κ agonist, norBNI, was added after which the test compound was again cumulatively added after roughly 20 minutes. The Ke value was calculated using the following calculation formula from the difference in the efficacies of both agonists.

[2] = biological target: T1, κ receptor (Mus musculus, UniProt P33534); assay: Opioid activity test using an extracted mouse vas deferens preparation, Ke with norBNI; parameters: species or system male ddy mouse; details: for receptor selectivity of agonist (κ): in words; for Ke, norBNI: κ, norBNI added
T1 construct: from tissue; host or cells: mouse (male ddy) vas deferens
T1 sequence (P33534 whole entry): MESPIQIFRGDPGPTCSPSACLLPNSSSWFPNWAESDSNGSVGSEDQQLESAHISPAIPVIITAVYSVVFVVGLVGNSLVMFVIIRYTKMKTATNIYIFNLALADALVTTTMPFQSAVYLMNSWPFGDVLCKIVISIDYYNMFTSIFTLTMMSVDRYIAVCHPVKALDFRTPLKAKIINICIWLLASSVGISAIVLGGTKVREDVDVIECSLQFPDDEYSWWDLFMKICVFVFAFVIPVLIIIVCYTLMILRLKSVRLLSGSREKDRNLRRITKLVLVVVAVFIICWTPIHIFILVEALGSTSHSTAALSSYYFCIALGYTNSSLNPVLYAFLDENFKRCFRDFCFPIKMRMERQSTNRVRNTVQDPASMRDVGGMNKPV
Method: as §1, §2
Ke=[Conc. of added agonist]/(IC50 ratio-1)
IC50 ratio=IC50 in the presence of agonist/IC50 in the absence of agonist

[3] = Diuretic action (urine output for 5 hours after physiological saline loading in rats); type: in vivo, male Wistar rats; details: Rattus norvegicus, sc, 5 hours after saline 20 ml/kg p.o.; for ED (200% urine output): dose giving urine output of 200 (non-dosed group = 100); for ED (500% urine output): dose giving urine output of 500 (non-dosed group = 100)
Method: 7-8 week old male Wistar rats were used in this test after prohibiting from drinking water for 1 hour before the start of testing. After discharging any urine accumulated in the bladder by gently stimulating the lower abdomens of the animals, the drug was administered subcutaneously. After 30 minutes, the animals were then forcibly given 20 ml/kg of physiological saline orally. The animals were placed in metabolic cages immediately after administration of the drug (2 animals/cage) and urine output for 5 hours after loading with physiological saline was measured. Drug efficacy was expressed in the form of those doses resulting in urine outputs of 200 and 500, respectively, when the urine output of a non-dosed group was taken to be 100. Those doses were expressed as the ED200 and ED500 values, respectively.

[4] = system: acetic acid-induced writhing in ddy mice; assay: animal or person; type: in vivo, 5 week old ddy mice; details: s.c. 15 minutes before acetic acid
Method: 5 week old ddy mice were used in this test. After intraperitoneal administration of 0.1 ml of 0.6% aqueous acetic acid per 10 g of body weight, the number of writhing reactions that occurred in 10 minutes starting 10 minutes after administration was evaluated for the indicator. The test drug was administered subcutaneously into the backs of the animals 15 minutes before administration of acetic acid.

[5] = biological target: T2, δ receptor (Mus musculus, UniProt P32300); parameters: species or system male ddy mouse; details: mouse vas deferens, δ, NTI added
T2 construct: The vas deferens extracted from the animal was suspended in a Magnus tube; from tissue; host or cells: mouse (male ddy) vas deferens
T2 sequence (P32300 whole entry): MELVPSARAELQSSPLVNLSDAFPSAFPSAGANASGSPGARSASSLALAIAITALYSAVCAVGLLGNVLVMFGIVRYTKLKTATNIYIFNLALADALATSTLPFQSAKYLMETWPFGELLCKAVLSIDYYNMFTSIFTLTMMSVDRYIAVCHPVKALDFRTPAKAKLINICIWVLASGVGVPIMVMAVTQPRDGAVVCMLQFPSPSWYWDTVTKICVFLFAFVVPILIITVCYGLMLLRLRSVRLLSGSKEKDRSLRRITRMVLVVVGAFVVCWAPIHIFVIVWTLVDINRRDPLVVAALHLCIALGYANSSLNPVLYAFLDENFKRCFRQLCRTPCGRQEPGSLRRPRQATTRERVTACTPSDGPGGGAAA

[6] = Mus musculus, sc, read-out: ED50

In the case of `CN(C(=O)CC(=O)c1ccccc1)[C@@H]1CC[C@@]2(O)[C@H]3Cc4ccc(O)c5c4[C@@]2(CCN3CC2CC2)[C@H]1O5` [Compound 103, 17-cyclopropylmethyl-3,14β-dihydroxy-4,5α-epoxy-6β-(N-methylbenzoylacetamido)morphinan.cndot.tartrate], the IC50 [1] is reported as 11 nM, the “receptor selectivity of agonist (κ)” value [2] is reported as “selective agonists for κ receptors” and the “Ke, norBNI” value [2] is reported as 0.657 nM. The ED (200% urine output) [3] was 0.0827 mg/kg, the ED (500% urine output) [3] was 5.65 mg/kg and the ED50 [4, 6] was 0.069 mg/kg.

Work on `CCC/C=C/C(=O)N(C)[C@H]1CC[C@@]2(O)[C@H]3Cc4ccc(O)c5c4[C@@]2(CCN3CC2CC2)[C@H]1O5` [Compound 95, 17-cyclopropylmethyl-3,14β-dihydroxy-4,5α-epoxy-6α-(N-methyl-trans-2-hexenamido)morphinan.cndot.tartrate] yielded an ED (200% urine output) [3] of 0.0028 mg/kg, an ED (500% urine output) [3] of 0.0968 mg/kg and an ED50 [4, 6] of 0.0081 mg/kg.

In the case of `CN(C(=O)CSc1ccccc1)[C@@H]1CC[C@@]2(O)[C@H]3Cc4ccc(O)c5c4[C@@]2(CCN3CC2CC2)[C@H]1O5` [Compound 65, 17-cyclopropylmethyl-3,14β-dihydroxy-4,5α-epoxy-6β-(N-methylthiophenoxyacetamido)morphinan.cndot.tartrate], the ED (200% urine output) [3] is reported as 0.119 mg/kg, the ED (500% urine output) [3] is reported as 5.31 mg/kg and the ED50 [4, 6] is reported as 0.15 mg/kg.

Molecule `CN(C(=O)Cc1cccc([N+](=O)[O-])c1)[C@H]1CC[C@@]2(O)[C@H]3Cc4ccc(O)c5c4[C@@]2(CCN3CC2CC2)[C@H]1O5` [Compound 83, 17-Cyclopropylmethyl-3,14β-dihydroxy-4,5α-epoxy-6α-(N-methyl-3-nitrophenylacetamido)morphinan.cndot.hydrochloride] has an ED (200% urine output) [3] of 0.0261 mg/kg, an ED (500% urine output) [3] of 2.99 mg/kg and an ED50 [4, 6] of 0.008 mg/kg.

`CN(C(=O)Cc1ccc(F)c(F)c1)[C@H]1CC[C@@]2(O)[C@H]3Cc4ccc(O)c5c4[C@@]2(CCN3CC2CC2)[C@H]1O5` [Compound 105, 17-cyclopropylmethyl-3,14β-dihydroxy-4,5α-epoxy-6α-(N-methyl-3,4-difluorophenylacetamido)morphinan.cndot.hydrochloride] showed an ED (200% urine output) [3] of 0.019 mg/kg, an ED (500% urine output) [3] of 3.3 mg/kg and an ED50 [4, 6] of 0.098 mg/kg.

In the case of `CN(C(=O)/C=C/c1cccc(F)c1)[C@@H]1CC[C@@]2(O)[C@H]3Cc4ccc(O)c5c4[C@@]2(CCN3CC2CC2)[C@H]1O5` [Compound 102, 17-cyclopropylmethyl-3,14β-dihydroxy-4,5α-epoxy-6β-(N-methyl-3-fluorocinnamamido)morphinan.cndot.tartrate], the IC50 [1] is reported as 1.6 nM, the “receptor selectivity of agonist (κ)” value [2] is reported as “selective agonists for κ receptors” and the “Ke, norBNI” value [2] is reported as 2.37 nM. The ED (200% urine output) [3] was 0.0014 mg/kg, the ED (500% urine output) [3] was 0.0154 mg/kg and the “Ke, NTI” value [5] was 276 nM. For the same molecule, the ED50 [4, 6] was 0.0019 mg/kg.

With `CN(C(=O)/C=C/C1CCCCC1)[C@H]1CC[C@@]2(O)[C@H]3Cc4ccc(O)c5c4[C@@]2(CCN3CC2CC2)[C@H]1O5` [Compound 50, 17-cyclopropylmethyl-4,5α-epoxy-3,14β-dihydroxy-6α-(N-methyl-trans-3-cyclohexylacrylamido)morphinan.cndot.hydrochloride] the ED (200% urine output) [3] was 0.0021 mg/kg, the ED (500% urine output) [3] was 0.0325 mg/kg and the ED50 [4, 6] was 0.011 mg/kg.

For `CCCCCC(=O)N(C)[C@@H]1CC[C@@]2(O)[C@H]3Cc4ccc(O)c5c4[C@@]2(CCN3CC2CC2)[C@H]1O5` [Compound 62, 17-cyclopropylmethyl-3,14β-dihydroxy-4,5α-epoxy-6β-(N-methylhexanamido)morphinan.cndot.tartrate], the IC50 [1] was 14.7 nM, the “receptor selectivity of agonist (κ)” value [2] was “selective agonists for κ receptors” and the “Ke, norBNI” value [2] was 0.203 nM. For the same molecule, the ED (200% urine output) [3] was 0.101 mg/kg, the ED (500% urine output) [3] was 7.04 mg/kg and the “Ke, NTI” value [5] was 90.2 nM. The ED50 [4, 6] was 0.077 mg/kg.

With `CCCCCCC(=O)N(C)[C@H]1CC[C@@]2(O)[C@H]3Cc4ccc(O)c5c4[C@@]2(CCN3CC2CC2)[C@H]1O5` [Compound 46, 17-cyclopropylmethyl-3,14β-dihydroxy-4,5α-epoxy-6α-(N-methylheptanamido)morphinan.cndot.hydrochloride] the IC50 [1] was 1.05 nM, the “receptor selectivity of agonist (κ)” value [2] was “selective agonists for κ receptors” and the “Ke, norBNI” value [2] was 0.440 nM. It also gave an ED50 [4, 6] of 0.013 mg/kg.

With `CN(C(=O)/C=C/c1ccc(Br)cc1)[C@@H]1CC[C@@]2(O)[C@H]3Cc4ccc(O)c5c4[C@@]2(CCN3CC2CC2)[C@H]1O5` [Compound 156, 17-cyclopropylmethyl-3,14β-dihydroxy-4,5α-epoxy-6β-(N-methyl-4-bromocinnamamido)morphinan hydrobromide] the “receptor selectivity of agonist (κ)” value [2] was “selective agonists for κ receptors”, the “Ke, norBNI” value [2] was 0.091 nM and the ED (200% urine output) [3] was 0.00545 mg/kg. For the same molecule, the ED (500% urine output) [3] was 0.355 mg/kg and the ED50 [4, 6] was 0.0056 mg/kg.

In the case of `CN(C(=O)/C=C/c1ccco1)[C@@H]1CC[C@@]2(O)[C@H]3Cc4ccc(O)c5c4[C@@]2(CCN3CC2CC2)[C@H]1O5` [Compound 70, 17-cyclopropylmethyl-3,14β-dihydroxy-4,5α-epoxy-6β-[N-methyl-trans-3-(2-furyl)acrylamido]morphinan.cndot.hydrochloride], the IC50 [1] is reported as 0.545 nM, the “receptor selectivity of agonist (κ)” value [2] is reported as “selective agonists for κ receptors” and the “Ke, norBNI” value [2] is reported as 0.198 nM. For the same molecule, the ED50 [4, 6] was 0.0016 mg/kg.

`CN(C(=O)Cc1ccc(Br)cc1)[C@H]1CC[C@@]2(O)[C@H]3Cc4ccc(O)c5c4[C@@]2(CCN3CC2CC2)[C@H]1O5` [Compound 28, 17-cyclopropylmethyl-3,14β-dihydroxy-4,5α-epoxy-6α-(N-methyl-4-bromophenylacetamido)morphinan.cndot.hydrobromide] gave an ED (200% urine output) [3] of 0.02 mg/kg, an ED (500% urine output) [3] of 3.8 mg/kg and an ED50 [4, 6] of 0.071 mg/kg.

In the case of `COc1cccc(C#CC(=O)N(C)[C@H]2CC[C@@]3(O)[C@H]4Cc5ccc(O)c6c5[C@@]3(CCN4CC3CC3)[C@H]2O6)c1.O=C(O)C(O)C(O)C(=O)O` [Compound 184, 17-cyclopropylmethyl-3,14β-dihydroxy-4,5α-epoxy-6α-[N-methyl-3-(3-methoxyphenyl)propiolamido]morphinan tartrate], the ED (200% urine output) [3] is reported as 0.00444 mg/kg, the ED (500% urine output) [3] is reported as 0.0326 mg/kg and the ED50 [4, 6] is reported as 0.0043 mg/kg.

`CN(C(=O)Cc1csc2ccccc12)[C@H]1CC[C@@]2(O)[C@H]3Cc4ccc(O)c5c4[C@@]2(CCN3CC2CC2)[C@H]1O5` [Compound 107, 17-cyclopropylmethyl-3,14β-dihydroxy-4,5α-epoxy-6α-(N-methyl-3-benzo[b]thienylacetamido)morphinan.cndot.hydrochloride] gave an ED (200% urine output) [3] of 0.0061 mg/kg, an ED (500% urine output) [3] of 0.2 mg/kg and an ED50 [4, 6] of 0.023 mg/kg.

`CN(C(=O)/C=C/c1ccc(Cl)c(Cl)c1)[C@H]1CC[C@@]2(O)[C@H]3Cc4ccc(O)c5c4[C@@]2(CCN3CC2CC2)[C@H]1O5` [Compound 86, 17-cyclopropylmethyl-3,14β-dihydroxy-4,5α-epoxy-6α-(N-methyl-3,4-dichlorocinnamamido)morphinan.cndot.hydrochloride] gave an ED (200% urine output) [3] of 0.0057 mg/kg, an ED (500% urine output) [3] of 0.229 mg/kg and an ED50 [4, 6] of 0.0347 mg/kg.

In the case of `CN(C(=O)CC(=O)c1ccccc1)[C@H]1CC[C@@]2(O)[C@H]3Cc4ccc(O)c5c4[C@@]2(CCN3CC2CC2)[C@H]1O5` [Compound 98, 17-cyclopropylmethyl-3,14β-dihydroxy-4,5α-epoxy-6α-(N-methylbenzoylacetamido)morphinan.cndot.tartrate], the IC50 [1] is reported as 1.3 nM, the “receptor selectivity of agonist (κ)” value [2] is reported as “selective agonists for κ receptors” and the “Ke, norBNI” value [2] is reported as 1.35 nM. It also gave an ED (200% urine output) [3] of 0.0065 mg/kg, an ED (500% urine output) [3] of 0.206 mg/kg and an ED50 [4] of 0.0068 mg/kg.
